Measured values as given in patent publication US12281095B2, “Pesticidally active diazine-amide compounds” (SYNGENTA CROP PROTECTION AG, priority 2019, dated 2025).

Experiments:
Format in all cases: in vivo
[1] = tested on: Diabrotica balteata (Corn Root Worm); assay: Example B1: Diabrotica balteata (Corn Root Worm), sprayed maize sprouts; conditions: 96 h, application rate of 200 ppm, L2 larvae, 4 days after infestation, read-out: control in at least one of the two categories (mortality or growth inhibition)
Method: Example B1: Diabrotica balteata (Corn Root Worm)
Maize sprouts placed onto an agar layer in 24-well microtiter plates were treated with aqueous test solutions prepared from 10′000 ppm DMSO stock solutions by spraying. After drying, the plates were infested with L2 larvae (6 to 10 per well). The samples were assessed for mortality and growth inhibition in comparison to untreated samples 4 days after infestation.

[2] = tested on: Chilo suppressalis (Striped Rice Stemborer); assay: Example B4: Chilo suppressalis (Striped Rice Stemborer), artificial diet; conditions: 144 h, application rate of 200 ppm, L2 larvae, 6 days after infestation, read-out: control in at least one of the three categories (mortality, anti-feedant or growth inhibition)
Method: Example B4: Chilo suppressalis (Striped Rice Stemborer)
24-well microtiter plates with artificial diet were treated with aqueous test solutions prepared from 10′000 ppm DMSO stock solutions by pipetting. After drying, the plates were infested with L2 larvae (6-8 per well). The samples were assessed for mortality, anti-feeding effect, and growth inhibition in comparison to untreated samples 6 days after infestation. Control of Chilo suppressalis by a test sample is given when at least one of the categories mortality, anti-feedant effect, and growth inhibition is higher than the untreated sample.

[3] = tested on: Plutella xylostella (Diamond Back Moth); assay: Example B5: Plutella xylostella (Diamond Back Moth), artificial diet, 24-well; conditions: 192 h, application rate of 200 ppm, eggs, 8 days after infestation, read-out: control in at least one of the two categories (mortality or growth inhibition)
Method: Example B5: Plutella xylostella (Diamond Back Moth)
24-well microtiter plates with artificial diet were treated with aqueous test solutions prepared from 10′000 ppm DMSO stock solutions by pipetting. After drying, Plutella eggs were pipetted through a plastic stencil onto a gel blotting paper and the plate was closed with it. The samples were assessed for mortality and growth inhibition in comparison to untreated samples 8 days after infestation.

[4] = tested on: Spodoptera littoralis (Egyptian Cotton Leaf Worm); assay: Example B9: Spodoptera littoralis (Egyptian Cotton Leaf Worm), sprayed cotton leaf discs; conditions: foliar, 72 h, application rate of 200 ppm, L1 larvae, 3 days after infestation, read-out: control in at least one of the three categories (mortality, anti-feedant or growth inhibition)
[5] = tested on: Plutella xylostella (Diamondback Moth); assay: Example B13: Plutella xylostella (Diamondback Moth), artificial diet, 96-well; conditions: 216 h, application rate of 500 ppm, eggs/L1 larvae, 9 days after infestation
Method: Example B13: Plutella xylostella (Diamondback Moth)
96-well microtiter plates containing artificial diet were treated with aqueous test solutions, prepared from 10′000 ppm DMSO stock solutions, by a liquid handling robot. After drying, eggs (˜30 per well) were infested onto a netted lid which was suspended above the diet. The eggs hatch and L1 larvae move down to the diet. The samples were assessed for mortality 9 days after infestation.

[6] = tested on: Euschistus heros (Neotropical Brown Stink Bug); assay: Example B2: Euschistus heros (Neotropical Brown Stink Bug), sprayed soybean leaves; conditions: 120 h, application rate of 200 ppm, N2 nymphs, 5 days after infestation, read-out: control in at least one of the two categories (mortality or growth inhibition)
Method: Example B2: Euschistus heros (Neotropical Brown Stink Bug)
Soybean leaves on agar in 24-well microtiter plates were sprayed with aqueous test solutions prepared from 10′000 ppm DMSO stock solutions. After drying the leaves were infested with N2 nymphs. The samples were assessed for mortality and growth inhibition in comparison to untreated samples 5 days after infestation.

CC(NC(=O)c1cc(C(F)(F)F)cc(C2(C#N)CC2)c1)c1nccnc1-c1ccc(OCC(F)(F)F)cn1 (centres unmarked) [P24, 3-(1-cyanocyclopropyl)-N-[1-[3-[5-(2,2,2-trifluoroethoxy)-2-pyridyl]pyrazin-2-yl]ethyl]-5-(trifluoromethyl)benzamide]
≥ 80%: percent control (mortality or growth inhibition) at 200 ppm [1] | percent control (mortality, anti-feedant effect or growth inhibition) at 200 ppm [2] | percent control (mortality or growth inhibition) at 200 ppm [3] | percent control (mortality, anti-feedant effect or growth inhibition) at 200 ppm [4] | mortality at 500 ppm [5]

CC(NC(=O)c1cc(C(F)(F)F)cc(S(=O)(=O)C(F)(F)F)c1)c1nccnc1-c1ncc(OCC(F)F)cn1 (centres unmarked) [P28, N-[1-[3-[5-(2,2-difluoroethoxy)pyrimidin-2-yl]pyrazin-2-yl]ethyl]-3-(trifluoromethyl)-5-(trifluoromethylsulfonyl)benzamide]
≥ 80%: percent control (mortality or growth inhibition) at 200 ppm [1] | percent control (mortality or growth inhibition) at 200 ppm [6] | percent control (mortality, anti-feedant effect or growth inhibition) at 200 ppm [2] | percent control (mortality or growth inhibition) at 200 ppm [3] | percent control (mortality, anti-feedant effect or growth inhibition) at 200 ppm [4] | mortality at 500 ppm [5]

CC(NC(=O)c1cc(C(F)(F)F)cc(C(F)(F)C2CC2)c1)c1nccnc1-c1ncc(OC(F)F)cn1 (centres unmarked) [P29, 3-[cyclopropyl(difluoro)methyl]-N-[1-[3-[5-(difluoromethoxy)pyrimidin-2-yl]pyrazin-2-yl]ethyl]-5-(trifluoromethyl)benzamide]
≥ 80%: percent control (mortality or growth inhibition) at 200 ppm [1] | percent control (mortality or growth inhibition) at 200 ppm [6] | percent control (mortality, anti-feedant effect or growth inhibition) at 200 ppm [2] | percent control (mortality or growth inhibition) at 200 ppm [3] | percent control (mortality, anti-feedant effect or growth inhibition) at 200 ppm [4] | mortality at 500 ppm [5]

CC(NC(=O)c1cc(C(F)(F)F)cc(C2(C#N)CC2)c1)c1nccnc1-c1ccc(OCC(F)F)cn1 (centres unmarked) [P33, 3-(1-cyanocyclopropyl)-N-[1-[3-[5-(2,2-difluoroethoxy)-2-pyridyl]pyrazin-2-yl]ethyl]-5-(trifluoromethyl)benzamide]
≥ 80%: percent control (mortality or growth inhibition) at 200 ppm [1] | percent control (mortality, anti-feedant effect or growth inhibition) at 200 ppm [2] | percent control (mortality or growth inhibition) at 200 ppm [3] | percent control (mortality, anti-feedant effect or growth inhibition) at 200 ppm [4] | mortality at 500 ppm [5]

CC(NC(=O)c1cc(C2CC2C(F)(F)F)cc(C(F)(F)F)c1)c1nccnc1-c1ncc(OCC(F)F)cn1 (centres unmarked) [P38, N-[1-[3-[5-(2,2-difluoroethoxy)pyrimidin-2-yl]pyrazin-2-yl]ethyl]-3-(trifluoromethyl)-5-[2-(trifluoromethyl)cyclopropyl]benza-mide]
≥ 80%: percent control (mortality or growth inhibition) at 200 ppm [1] | percent control (mortality, anti-feedant effect or growth inhibition) at 200 ppm [2] | percent control (mortality or growth inhibition) at 200 ppm [3] | percent control (mortality, anti-feedant effect or growth inhibition) at 200 ppm [4] | mortality at 500 ppm [5]

CC(NC(=O)c1cc(C2CC2)cc(C(F)(F)F)c1)c1nccnc1-c1ncc(OC(F)F)cn1 (centres unmarked) [P41, 3-cyclopropyl-N-[1-[3-[5-(difluoromethoxy)pyrimidin-2-yl]pyrazin-2-yl]ethyl]-5-(trifluoromethyl)benzamide]
≥ 80%: percent control (mortality or growth inhibition) at 200 ppm [1] | percent control (mortality, anti-feedant effect or growth inhibition) at 200 ppm [2] | percent control (mortality or growth inhibition) at 200 ppm [3] | percent control (mortality, anti-feedant effect or growth inhibition) at 200 ppm [4] | mortality at 500 ppm [5]
